Our source for the k cat/Km values is ChEMBL document CHEMBL1126004, “Synthesis and resolution of 7-fluorotryptophans” (Bioorg Med Chem Lett, 1991).

The experiment in a line: Compound was evaluated for relative ratio (Kcat/Km) between catalyst constant (Kcat) and Michaelis-Menten constant (Km) in a reaction with tryptophan indole-lyase (tryptophanase) from Escherichia coli.

As for `N[C@@H](Cc1c[nH]c2c(F)ccc(F)c12)C(=O)O`, the k cat/Km was found to be 6%.
As for `N[C@@H](Cc1c[nH]c2c(F)cc(F)cc12)C(=O)O`, the k cat/Km turned out to be 30%.
As for `N[C@@H](Cc1c[nH]c2ccccc12)C(=O)O`, the k cat/Km is 100%.
As for `N[C@@H](Cc1c[nH]c2c(F)cccc12)C(=O)O`, the figure is 14%.
